In patent US20200017495A1, “NOVEL HETEROCYCLIC COMPOUNDS AND THEIR USE IN PREVENTING OR TREATING BACTERIAL INFECTIONS” (priority 2017, published 2020):
Where two headings read alike, the source gives them in different places.

Experiments:
KPC-2 = KPC-2 (Klebsiella pneumoniae, UniProt Q9F663); test: β-lactamase inhibitory activity, IC50 (nitrocefin hydrolysis); format: biochemical
Experimental: (§3) Method 1: β-Lactamase Inhibitory Activity, Determination of IC50 (Table 1)
(§4) Enzymes were cloned in E. coli expression vector, expressed and purified in house using classical procedures. […] After 30 min of pre-incubation at room temperature, 15 μL of NCF (100 μM final) were finally added in each well. […] Enzyme activity was obtained by subtracting the background from the final signal, and was converted to enzyme inhibition using non inhibited wells. IC50 curves were fitted to a classical Langmuir equilibrium model with Hill slope using XLFIT (IDBS).

OXA-58 = OXA-58 (Acinetobacter baumannii, UniProt Q2TR58); test: as above; format: biochemical
Experimental: as §4

OXA-40 = OXA-40 (Acinetobacter baumannii, UniProt Q8RLA6); test: as above; format: biochemical
Experimental: as §4

OXA-1 = OXA-1 (Escherichia coli, UniProt P13661); test: as above; format: biochemical
Experimental: as §4

SAU PC1 = SAU PC1 (Staphylococcus aureus, UniProt P00807); test: as above; format: biochemical, S. aureus; details: SAU PC1; 30 min pre-incubation, nitrocefin 100 μM; read-out: IC50
Experimental: as §3, §4

TEM-1 = TEM-1 (Escherichia coli, UniProt P62593); test: as above; format: biochemical
Experimental: as §4

OXA-23 = OXA-23 (Acinetobacter baumannii, UniProt Q9L4P2); test: as above; format: biochemical
Experimental: as §4

[1] = test system: Proteus mirabilis (PMI) isolates; test: microbe, parasite or virus in culture; format: cell-based; details: Proteus mirabilis, compound alone, read-out: MIC
Experimental: (§1) Method 2: MIC of Compounds Alone and Combined with Antibacterials Against Bacterial Isolates
(§2) Compounds of the present invention were assessed against genotyped bacterial strains (Table 3, 4) alone or in combination with an antibacterial (Table 2). […] Log phase bacterial suspensions were adjusted to a final density of 5.10^5 CFU/mL in cation-adjusted Mueller-Hinton broth (ca-MHB; Becton-Dickinson and Company) and added to each well (98 μL). Microplates were incubated for 16-20 h at 35° C. in ambient air. The MIC of the compounds was defined as the lowest concentration of said compounds that prevented bacterial growth as read by visual inspection. The MIC of ATB at each compound concentration was defined as the lowest concentration of ATB that prevented bacterial growth as read by visual inspection.

CTX-M-15 = CTX-M-15 (Escherichia coli, UniProt Q9EXV5); test: β-lactamase inhibitory activity, IC50 (nitrocefin hydrolysis); format: biochemical
Experimental: as §3, §4

PAE ampC = PAE ampC (Pseudomonas aeruginosa, UniProt P24735); test: as above; format: biochemical, P. aeruginosa
Experimental: as §4

OXA-15 = OXA-15 (Pseudomonas aeruginosa, UniProt Q51574); test: as above; format: biochemical
Experimental: as §4

OXA-48 = OXA-48 (Klebsiella pneumoniae, UniProt Q6XEC0); test: as above; format: biochemical
Experimental: as §4

SHV-1 = SHV-1 (Klebsiella pneumoniae, UniProt P0AD64); test: as above; format: biochemical
Experimental: as §4

P99 ampC = P99 ampC (Enterobacter cloacae, UniProt P05364); test: as above; format: biochemical
Experimental: as §3, §4

OXA-11 = OXA-11 (Pseudomonas aeruginosa, UniProt Q06778); test: as above; format: biochemical
Experimental: as §4

[2] = test system: Providencia stuartii (PST) isolates; test: MIC of compounds alone and combined with antibacterials, broth microdilution (CLSI); format: cell-based; details: Providencia stuartii; strain PST UFR235; compound alone; read-out: MIC
Experimental: as §1
Compounds of the present invention were assessed against genotyped bacterial strains (Table 3, 4) alone or in combination with an antibacterial (Table 2). […]. Briefly, compounds alone according to the invention were prepared in DMSO and spotted (2 μL each) on sterile polystyrene plates (Corning, 3788). Combinations of compounds and antibiotics dilutions were prepared in DMSO and spotted (1 μL each) on sterile polystyrene plates (Corning, 3788). Log phase bacterial suspensions were adjusted to a final density of 5.10^5 CFU/mL in cation-adjusted Mueller-Hinton broth (ca-MHB; Becton-Dickinson and Company) and added to each well (98 μL). Microplates were incubated for 16-20 h at 35° C. in ambient air. The MIC of the compounds was defined as the lowest concentration of said compounds that prevented bacterial growth as read by visual inspection. The MIC of ATB at each compound concentration was defined as the lowest concentration of ATB that prevented bacterial growth as read by visual inspection.

SHV-12 = SHV-12 (Klebsiella pneumoniae, UniProt P0AD64, E235K/G234S/L31Q); test: β-lactamase inhibitory activity, IC50 (nitrocefin hydrolysis); format: biochemical; details: SHV-12; 30 min pre-incubation, nitrocefin 100 μM; read-out: IC50
Experimental: as §3, §4

[3] = test system: Klebsiella pneumoniae (KPN) isolates; test: MIC of compounds alone and combined with antibacterials, broth microdilution (CLSI); format: cell-based; details: Klebsiella pneumoniae, compound alone, read-out: MIC
Experimental: as §1, §2

[4] = test system: Enterobacter aerogenes (EAE) isolates; test: as above; format: cell-based; details: Klebsiella aerogenes
Experimental: as §1, §2

[5] = test system: Escherichia coli (ECO) isolates; test: as above; format: cell-based; details: Escherichia coli, compound alone, read-out: MIC
Experimental: as §1, §2

[6] = test system: Serratia marcescens (SMA) isolates; test: as above; format: cell-based; details: Serratia marcescens; strain SMA UFR143; compound alone; read-out: MIC
Experimental: as §1, §2

[7] = test system: Citrobacter freundii (CFR) isolates; test: as above; format: cell-based; details: Citrobacter freundii, strain CFR UFR250; compound alone
Experimental: as §1, §2

OXA-23, sequence (Q9L4P2 18-273): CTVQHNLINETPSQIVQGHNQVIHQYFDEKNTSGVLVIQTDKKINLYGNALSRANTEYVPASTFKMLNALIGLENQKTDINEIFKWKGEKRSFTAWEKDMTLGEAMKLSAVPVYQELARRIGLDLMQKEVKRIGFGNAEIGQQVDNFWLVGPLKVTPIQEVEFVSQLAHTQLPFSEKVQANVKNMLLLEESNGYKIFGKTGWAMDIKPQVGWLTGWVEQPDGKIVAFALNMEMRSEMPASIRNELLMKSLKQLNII
OXA-1, sequence (P13661 26-276): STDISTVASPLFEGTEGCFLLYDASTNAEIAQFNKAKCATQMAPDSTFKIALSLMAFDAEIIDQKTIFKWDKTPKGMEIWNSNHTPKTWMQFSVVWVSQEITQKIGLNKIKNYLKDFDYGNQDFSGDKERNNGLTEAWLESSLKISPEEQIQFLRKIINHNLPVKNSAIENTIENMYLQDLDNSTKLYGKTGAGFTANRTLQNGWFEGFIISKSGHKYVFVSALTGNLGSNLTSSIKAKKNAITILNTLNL
PAE ampC, sequence (P24735 27-397): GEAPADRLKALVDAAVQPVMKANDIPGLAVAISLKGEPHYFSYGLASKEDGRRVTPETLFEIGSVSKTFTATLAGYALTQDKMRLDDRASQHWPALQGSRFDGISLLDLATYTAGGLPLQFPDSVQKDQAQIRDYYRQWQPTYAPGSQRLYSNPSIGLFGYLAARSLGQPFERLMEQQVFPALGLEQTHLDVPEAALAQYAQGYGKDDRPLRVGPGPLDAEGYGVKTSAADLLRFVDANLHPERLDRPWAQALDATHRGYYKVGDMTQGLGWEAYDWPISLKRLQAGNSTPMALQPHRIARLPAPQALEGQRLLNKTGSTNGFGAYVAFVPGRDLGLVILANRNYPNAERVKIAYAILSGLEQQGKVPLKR
SHV-12, sequence (P0AD64 22-286 L31Q/G234S/E235K): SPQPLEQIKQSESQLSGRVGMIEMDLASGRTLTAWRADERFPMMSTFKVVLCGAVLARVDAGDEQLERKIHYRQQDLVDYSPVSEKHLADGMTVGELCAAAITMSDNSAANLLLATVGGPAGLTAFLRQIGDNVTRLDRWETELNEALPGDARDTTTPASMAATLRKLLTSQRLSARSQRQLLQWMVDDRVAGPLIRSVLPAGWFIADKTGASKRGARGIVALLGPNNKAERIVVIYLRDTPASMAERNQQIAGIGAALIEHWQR
OXA-11, sequence (Q06778 21-266): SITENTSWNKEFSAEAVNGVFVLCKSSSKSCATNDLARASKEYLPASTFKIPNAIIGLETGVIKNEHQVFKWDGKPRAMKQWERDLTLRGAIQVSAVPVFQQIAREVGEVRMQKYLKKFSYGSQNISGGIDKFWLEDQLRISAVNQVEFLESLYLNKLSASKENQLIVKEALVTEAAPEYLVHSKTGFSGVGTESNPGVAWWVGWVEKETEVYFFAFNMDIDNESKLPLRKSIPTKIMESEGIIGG
OXA-15, sequence (Q51574 22-275): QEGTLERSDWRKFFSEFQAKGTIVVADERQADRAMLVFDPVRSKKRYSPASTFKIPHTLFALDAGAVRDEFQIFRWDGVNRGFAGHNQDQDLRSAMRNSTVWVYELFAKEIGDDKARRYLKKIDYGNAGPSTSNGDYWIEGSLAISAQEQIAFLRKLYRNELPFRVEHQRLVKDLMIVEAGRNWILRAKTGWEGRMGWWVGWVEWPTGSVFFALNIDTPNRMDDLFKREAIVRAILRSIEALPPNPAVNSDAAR
KPC-2, sequence (Q9F663 25-293 limits assumed): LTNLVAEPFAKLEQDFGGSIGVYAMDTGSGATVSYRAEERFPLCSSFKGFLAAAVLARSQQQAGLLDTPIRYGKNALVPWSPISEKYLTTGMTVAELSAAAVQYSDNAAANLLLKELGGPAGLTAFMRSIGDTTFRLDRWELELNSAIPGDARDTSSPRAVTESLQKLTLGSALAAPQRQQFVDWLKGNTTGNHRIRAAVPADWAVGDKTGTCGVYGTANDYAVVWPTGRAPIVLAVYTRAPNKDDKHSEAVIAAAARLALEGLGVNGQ
SHV-1, sequence (P0AD64 22-286): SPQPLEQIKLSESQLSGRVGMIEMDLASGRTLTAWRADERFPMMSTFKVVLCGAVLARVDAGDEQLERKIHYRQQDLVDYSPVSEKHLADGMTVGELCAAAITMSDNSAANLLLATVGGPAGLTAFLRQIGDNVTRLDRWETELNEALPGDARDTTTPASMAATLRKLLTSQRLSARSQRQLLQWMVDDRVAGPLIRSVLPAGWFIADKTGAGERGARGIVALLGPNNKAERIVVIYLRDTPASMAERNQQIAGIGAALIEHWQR
OXA-58, sequence (Q2TR58 19-280): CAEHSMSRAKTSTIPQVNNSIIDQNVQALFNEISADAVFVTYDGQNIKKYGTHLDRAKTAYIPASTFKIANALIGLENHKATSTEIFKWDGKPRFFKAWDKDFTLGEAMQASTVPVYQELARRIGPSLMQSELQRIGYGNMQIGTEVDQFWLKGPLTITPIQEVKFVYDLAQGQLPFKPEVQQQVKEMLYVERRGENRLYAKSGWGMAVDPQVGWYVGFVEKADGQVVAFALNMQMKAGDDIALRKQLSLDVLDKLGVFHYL
TEM-1, sequence (P62593 24-286 limits assumed): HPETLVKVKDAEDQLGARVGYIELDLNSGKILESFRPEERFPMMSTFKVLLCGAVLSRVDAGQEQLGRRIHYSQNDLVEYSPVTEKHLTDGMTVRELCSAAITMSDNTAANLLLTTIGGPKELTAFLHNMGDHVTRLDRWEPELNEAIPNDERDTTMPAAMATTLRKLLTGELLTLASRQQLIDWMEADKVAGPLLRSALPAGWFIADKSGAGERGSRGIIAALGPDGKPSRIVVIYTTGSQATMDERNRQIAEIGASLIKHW
P99 ampC, sequence (P05364 21-381): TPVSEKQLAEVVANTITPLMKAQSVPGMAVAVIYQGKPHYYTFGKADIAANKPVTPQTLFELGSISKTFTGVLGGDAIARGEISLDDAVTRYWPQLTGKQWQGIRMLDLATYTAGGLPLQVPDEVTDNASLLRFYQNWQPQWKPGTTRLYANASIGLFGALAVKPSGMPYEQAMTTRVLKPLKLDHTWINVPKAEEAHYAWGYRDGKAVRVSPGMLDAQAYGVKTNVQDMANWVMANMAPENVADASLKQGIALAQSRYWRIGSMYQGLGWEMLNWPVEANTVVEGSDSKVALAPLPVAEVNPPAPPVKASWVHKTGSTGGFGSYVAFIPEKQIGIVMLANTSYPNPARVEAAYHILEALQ
CTX-M-15, sequence (Q9EXV5 entry or part of it): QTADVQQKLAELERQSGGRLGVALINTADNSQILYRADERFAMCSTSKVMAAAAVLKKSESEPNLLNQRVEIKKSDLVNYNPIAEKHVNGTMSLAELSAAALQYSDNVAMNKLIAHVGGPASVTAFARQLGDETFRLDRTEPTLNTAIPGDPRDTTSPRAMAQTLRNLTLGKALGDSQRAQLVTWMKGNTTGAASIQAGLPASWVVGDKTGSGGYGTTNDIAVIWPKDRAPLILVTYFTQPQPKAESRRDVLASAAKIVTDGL
OXA-48, sequence (Q6XEC0 23-265 limits assumed): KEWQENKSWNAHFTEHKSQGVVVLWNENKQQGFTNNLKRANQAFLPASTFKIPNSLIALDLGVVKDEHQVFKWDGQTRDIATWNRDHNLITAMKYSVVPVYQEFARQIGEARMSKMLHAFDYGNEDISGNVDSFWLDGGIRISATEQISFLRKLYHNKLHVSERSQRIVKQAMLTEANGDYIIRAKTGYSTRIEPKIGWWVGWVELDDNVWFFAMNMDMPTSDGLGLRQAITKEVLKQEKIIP
SAU PC1, sequence (P00807 25-281): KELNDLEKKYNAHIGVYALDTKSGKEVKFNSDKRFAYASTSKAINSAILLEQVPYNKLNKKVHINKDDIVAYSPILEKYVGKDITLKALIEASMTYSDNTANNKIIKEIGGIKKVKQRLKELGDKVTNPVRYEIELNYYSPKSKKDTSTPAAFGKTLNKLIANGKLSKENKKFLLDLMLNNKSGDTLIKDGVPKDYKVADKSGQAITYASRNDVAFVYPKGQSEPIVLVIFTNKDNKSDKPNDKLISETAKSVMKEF
OXA-40, sequence (Q8RLA6 entry or part of it): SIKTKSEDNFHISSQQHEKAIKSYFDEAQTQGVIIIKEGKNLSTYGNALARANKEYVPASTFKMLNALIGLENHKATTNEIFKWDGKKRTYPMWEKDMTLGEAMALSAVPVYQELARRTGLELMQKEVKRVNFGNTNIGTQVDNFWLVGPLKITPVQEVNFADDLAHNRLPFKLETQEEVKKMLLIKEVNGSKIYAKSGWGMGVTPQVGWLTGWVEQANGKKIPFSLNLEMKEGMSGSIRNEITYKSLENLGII

## O=C1N2CC=C(c3cnoc3)C(C2)N1OC(F)(F)C(=O)[O-].[Li+] (stereo not drawn) [AF1, Lithium difluoro-(4-isoxazol-4-yl-7-oxo-1,6-diaza-bicyclo[3.2.1]oct-3-en-6-yloxy)-acetate]
KPC-2
  IC50: 510 nM
OXA-58
  IC50: 15 nM
OXA-40
  IC50: 120 nM
OXA-1
  IC50: 1600 nM
SAU PC1
  IC50: 560 nM
TEM-1
  IC50: 10 nM
OXA-23
  IC50: 110 nM
[1]; strain PMI UFR126
  MIC: 8 µg/mL
[1]; strain PMI UFR127
  MIC: 4 µg/mL
CTX-M-15
  IC50: 2.4 nM
PAE ampC
  IC50: 4500 nM
OXA-15
  IC50: 24 nM
OXA-48
  IC50: 3 nM
SHV-1
  IC50: 20 nM
P99 ampC
  IC50: 2200 nM
OXA-11
  IC50: 250 nM
[2]
  MIC: > 32 µg/mL
SHV-12
  IC50: 3.8 nM
[3]; strain KPN 110376
  MIC: > 32 µg/mL
[3]; strain KPN 131119
  MIC: > 32 µg/mL
[3]; strain KPN 190270
  MIC: > 32 µg/mL
[3]; strain KPN UFR25
  MIC: > 32 µg/mL
[3]; strain KPN UFR66
  MIC: > 32 µg/mL
[3]; strain KPN UFR68
  MIC: > 32 µg/mL
[4]
  MIC: 32 µg/mL
[5]; strain ECO 190317
  MIC: 2 µg/mL
[5]; strain ECO 190457
  MIC: 4 µg/mL
[5]; strain ECO UFR16
  MIC: 8 µg/mL
[5]; strain ECO UFR20
  MIC: 16 µg/mL
[5]; strain ECO UFR61O
  MIC: 8 µg/mL
[5]; strain ECO UFR209
  MIC: 8 µg/mL
[6]
  MIC: 32 µg/mL
[7]
  MIC: > 32 µg/mL
